Experimental findings from patent US20240261418A1, “SOS1 DEGRADING AGENT AND PREPARATION METHOD THEREFOR AND APPLICATION THEREOF” (SHANGHAI LEADINGTAC PHARMACEUTICAL CO. LTD., priority 2021, published 2024) are described below.

For orientation: DC50 means the concentration at which degradation of the target reaches its halfway point. A word on the Dmax: it is the greatest extent of degradation seen. A low value points to shallow degradation.

The target in this assay is T1, SOS1 protein (Homo sapiens, UniProt Q07889).
T1 sequence (Q07889 1-1333): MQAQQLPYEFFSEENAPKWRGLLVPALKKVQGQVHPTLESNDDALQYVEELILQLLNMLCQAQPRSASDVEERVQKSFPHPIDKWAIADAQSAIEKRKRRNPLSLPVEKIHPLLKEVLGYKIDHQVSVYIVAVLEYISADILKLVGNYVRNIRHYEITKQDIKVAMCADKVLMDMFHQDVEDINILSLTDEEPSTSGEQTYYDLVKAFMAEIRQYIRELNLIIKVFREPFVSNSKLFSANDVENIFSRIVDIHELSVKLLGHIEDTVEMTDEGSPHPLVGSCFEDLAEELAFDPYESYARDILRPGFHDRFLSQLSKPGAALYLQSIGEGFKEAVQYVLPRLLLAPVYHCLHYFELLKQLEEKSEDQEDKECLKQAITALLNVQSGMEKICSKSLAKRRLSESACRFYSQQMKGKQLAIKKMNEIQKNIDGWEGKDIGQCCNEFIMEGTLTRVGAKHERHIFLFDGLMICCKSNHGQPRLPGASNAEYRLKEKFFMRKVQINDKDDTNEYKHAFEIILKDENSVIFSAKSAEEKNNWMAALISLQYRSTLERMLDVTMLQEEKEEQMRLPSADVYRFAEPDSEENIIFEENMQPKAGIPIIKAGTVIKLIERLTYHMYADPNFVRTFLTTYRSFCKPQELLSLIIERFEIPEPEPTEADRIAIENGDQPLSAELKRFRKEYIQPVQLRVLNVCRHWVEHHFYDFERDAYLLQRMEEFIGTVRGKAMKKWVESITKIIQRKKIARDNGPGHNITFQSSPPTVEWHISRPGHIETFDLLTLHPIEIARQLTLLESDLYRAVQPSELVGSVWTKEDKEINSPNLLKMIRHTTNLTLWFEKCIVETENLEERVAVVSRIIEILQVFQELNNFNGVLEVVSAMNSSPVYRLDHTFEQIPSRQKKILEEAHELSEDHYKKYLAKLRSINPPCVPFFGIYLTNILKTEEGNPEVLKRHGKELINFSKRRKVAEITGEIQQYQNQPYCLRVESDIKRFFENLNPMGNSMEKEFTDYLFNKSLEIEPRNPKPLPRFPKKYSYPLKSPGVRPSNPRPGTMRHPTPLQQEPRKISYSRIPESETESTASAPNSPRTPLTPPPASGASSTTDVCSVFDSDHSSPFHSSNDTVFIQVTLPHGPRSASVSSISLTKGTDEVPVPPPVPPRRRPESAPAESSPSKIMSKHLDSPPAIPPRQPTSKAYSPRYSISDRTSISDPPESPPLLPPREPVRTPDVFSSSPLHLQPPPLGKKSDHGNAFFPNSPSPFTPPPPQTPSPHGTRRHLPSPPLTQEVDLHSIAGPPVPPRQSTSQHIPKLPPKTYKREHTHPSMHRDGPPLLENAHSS
Briefly: SOS1 degradation assay (Western blot) in NCI-H358 cells. Type of assay: cell-based. Particulars: NCI-H358 (KRAS G12C), 24 h. As for the experimental part:
The specific procedures were as follows:
0.95 mL of cells were seeded into each well of a 24-well cell culture plate to achieve a cell density of 5×10^5 cells/well; the cell plate was incubated in an incubator at 37° C. with 5% CO2 overnight. Then 50 μL of the compound solution after dilution was added to each of the wells with the corresponding cells, so that the final concentration of the compound was in a range of 0.03-3000 nM.
After dosing, the cell plate was incubated in an incubator at 37° C. with 5% CO2 for 24 h. […] After the plate was left to stand on ice for 30 min, the protein lysate in each well was transferred to a 1.5 mL centrifuge tube and centrifuged at 15000 g for 20 min at 4° C. The cell lysate supernatant after centrifugation was cryopreserved at −80° C. for testing and was used for determining the degradation level of the SOS1 protein by a WB method. The concentration of total protein in the cell lysate supernatant was determined using the BCA Protein Quantification Kit (Tiangen, PA115-02).
The concentration of total protein in the cell lysate was determined by BCA. The total protein was adjusted to 0.5 μg/μL with PBS and 5×SDS- PAGE protein loading buffer (Beyotime, P001L), incubated in a water bath at 100° C. for 15 min, incubated in an ice bath on ice for 5 min, centrifuged at 14000 g for 1 min at 4° C., and mixed well as a loading sample for WB. Protein electrophoresis was performed on a precast gel (KeyGEN, KGMG010W15) with a loading volume of 10 μL (total protein: 5 μg) using a Tris-MOPS-SDS running solution (Adamas, P1598253) at a constant voltage of 120 V for 55 min. After the electrophoresis, the protein on the gel strip was transferred to a PVDF membrane at a constant current of 250 mA for 65 min. After the membrane transfer, the membrane was incubated in 1× QuickBlock blocking buffer (Beyotime, P0235) for 30 min at room temperature. […] The protein map was subjected to gray value analysis by the chemiluminescence imaging system from Clinx. […] Then the degradation rate was calculated by comparing the gray correction value with the gray correction value of the control group. Then nonlinear curve fitting was performed by GraphPad Prism 8 in the logarithmic concentration-inhibition rate to obtain the DC50 and Dmax values of the compounds.
For orientation: In western blotting, separated proteins are transferred to a membrane and probed.

Turning to `COc1cc2nc(C)nc(N[C@H](C)c3cc(-c4c(Cl)cccc4CN(C)C)cs3)c2cc1[C@H]1CC[C@H](C(=O)N2CCN(CC3CCC4(CC3)CCN(C(=O)c3ccc(Cl)c(N5CCC(=O)NC5=O)c3)CC4)CC2)CC1` [Example 1, 1-(2-chloro-5-(9-((4-((1R,4R)-4-(4-(((R)-1-(4-(2-chloro-6-((dimethylamino)methyl)phenyl)thien-2-yl)ethyl)amino)-7-methoxy-2-methylquinazolin-6-yl)cyclohexane-1-carbonyl)piperazin-1-yl)methyl)-3-azaspiro[5.5]undecane-3-carbonyl)phenyl)dihydropyrimidine-2,4(1H,3H)-dione], the DC50 was < 0.05 µM and the maximal degradation (Dmax) was in the range of 80 to 100%.

Regarding `COc1cc2nc(C)nc(N[C@H](C)c3cc(-c4c(Cl)cccc4CN(C)C)cs3)c2cc1[C@H]1CC[C@H](C(=O)N2CCC(CCOCC3CCN(C(=O)c4ccc(Cl)c(N5CCC(=O)NC5=O)c4)CC3)CC2)CC1` [Example 5, 1-(2-chloro-5-(4-((2-(1-((1R,4R)-4-(4-(((R)-1-(4-(2-chloro-6-((dimethylamino)methyl)phenyl)thien-2-yl)ethyl)amino)-7-methoxy-2-methylquinazolin-6-yl)cyclohexane-1-carbonyl)piperidin-4-yl)ethoxy)methyl)piperidine-1-carbonyl)phenyl)dihydropyrimidine-2,4(1H,3H)-dione], the DC50 is < 0.05 µM and the Dmax lay within 80 to 100%.
